The subject of one assay is human IGF1R. As to the kind of experiment: IGF1R autophosphorylation (In-Cell Western). To be noted: for EC50: MEF cells overexpressing IGF1R, 15 min at 37°C, In-Cell Western, means ± SEM, at least three times, read-out: IGF1R auto-phosphorylation EC50; for more potent in stimulation of IGF1R autophosphorylation: relative to human insulin. The format is cell-based. From the text: (§1) CHO cells expressing either the IR-A or the IR-B isoform were used for IR autophosphorylation assays using In-Cell Western. For the analysis of IGF1R autophosphorylation the receptor was overexpressed in a mouse embryo fibroblast 3T3 Tet off cell line (BD Bioscience, Heidelberg, Germany) that was stably transfected with IGF1R tetracycline-regulatable expression plasmid resulting in the expression of ∼2.6×10^5 IGF1R per cell (as determined by FACS analysis, unpublished data). In order to determine the receptor tyrosine phosphorylation level, cells were seeded into 96-well plates and grown for 48 h. Cells were serum starved with serum-free medium αMEM (PAN Biotech GmbH, Aidenbach, Germany) for 3–4 h. […] After incubation the medium was discarded and the cells were fixed in 3.75% freshly prepared para-formaldehyde for 20 min. Cells were permeabilized with 0.1% Triton-X-100 in PBS for 20 min. Blocking was performed with Odyssey blocking buffer (LI-COR, Bad Homburg, Germany) overnight at 4°C. Anti-pTyr 4G10 (Millipore, Schwalbach, Germany) was incubated for 2 h at room temperature. After incubation of the primary antibody, cells were washed with PBS+0.1% Tween20. The secondary anti-mouse-IgG-800-CW antibody (Rockland, Gilbertsville, PA, USA) was incubated for 1 h. Results were normalized by the quantification of DNA with TO-PRO3 dye (Invitrogen, Karlsruhe, Germany). Data were obtained as relative units (RU) and are presented as fold over basal.
(§2) For each experiment, IC50 or EC50 values were obtained using the 4-parameter logistic model according to Ratkowsky and Reedy (1986). The adjustment was obtained by non-linear regression using the Levenberg-Marquardt algorithm in SAS v9.1.3 software via Biost@t-Speed V2.0-LTS internal application. If necessary, lower and upper asymptotes were set to 0 and 100, respectively.
Figure 4 Activity of insulin analogs on the human IGF1R and mitogenic potential in Saos-2 cells. Analysis of binding to the human IGF1R using [^125I]IGF-1 as radioactive ligand (A) and analysis of the insulin-stimulated autophosphorylation of the human IGF1R overexpressed in MEF cells (B) were done as described in figure 2 and Materials and Methods. Data are given as means ± SEM. […] Confluent cells were starved for 4 h and then incubated for 19 h with increasing concentrations of IGF-1, insulin or analog in serum free medium. [^14C]thymidine was added for further 6 h and the radioactivity measured in a Wallac Micro Scintillation counter. Data are given as means ± SEM from octuplicate sample.

For the next assay, the system named is primary rat adipocytes. As to the kind of experiment: Metabolic activity: insulin-stimulated lipid synthesis in primary rat adipocytes. The format is cell-based, rat (Sprague-Dawley). To be noted: for EC50: incorporation of [3-^3H]glucose into toluene-extractable lipids, 90 min at 37°C, pH 7.4, means ± SEM, five different adipocyte preparations, read-out: Metabolic potency EC50; for metabolic activity, EC50 lower than M1: relative to M1; for lipid synthesis EC50 higher relative to human insulin: fold higher EC50 relative to insulin. The procedure: The metabolic activity of the different insulins was compared using insulin-stimulated lipid synthesis in primary rat adipocytes. Primary rat adipocytes were prepared according to published procedures, [33]. Briefly, rats (Sprague-Dawley, male, 140–160 g, fed ad libitum) were provided from Charles-River (Sulzfeld, Germany) and killed by cervical dislocation in accordance with the German animal protection law. The animals were used for the preparation of primary adipocytes, exclusively, and were not subjected to any pretreatment, such as drug administration or starvation. Epididymal fat pads were rapidly removed, stripped of blood vessels and placed in PBS. Subsequently, the pads were washed with KRBB bubbled with 5% O2/95% CO2. Each pad was then cut into two or three pieces. Two pieces of each were incubated with 1.5 mL of digestion buffer (10 mg collagenase [Worthington Inc., CLS, type I, 190 units/mg] in 10 ml of KRBB containing 9 mg glucose) for 15–30 min at 37°C in a shaking water bath (240 cycles/min). Released adipocytes were separated from residual undigested tissue by passage through a nylon web (mesh size 150 µm) and washed by flotation in a plastic tube two or three times with KRBB and adjusted to the appropriate titer of 3.5×10^5 cells/mL. For distribution of the adipocytes, 200 µL of the suspension was removed under continuous gentle stirring with a plastic agitator.
Lipid synthesis was measured as the incorporation of [3-^3H]glucose into toluene-extractable lipids, at a final cell titer of […] in KRBB (1.2 mM KH2PO4, 1.2 mM MgSO4, 4.8 mM KCl, 25 mM NaHCO3, 120 mM NaCl, 2.4 mM CaCl2, containing 1% BSA [defatted, fraction V, Sigma, Deisenhofen, Germany] and 37 µM glucose and adjusted to pH 7.4) according to published procedures (Müller et al., 2008) with the following modifications: 680 µL of KRBB were filled into 10-mL scintillation vials and supplemented with 100 µL of D-[3-^3H]glucose (2 µCi/mL KRBB, 1 mM, Amersham-Buchler, Braunschweig, Germany) and 20 µL of insulin solution in KRBB. Lipid synthesis was started by the addition of 200 µL of adipocyte suspension in KRBB. After incubation for 90 min at 37°C under an atmosphere of 5% O2/95% CO2 and gentle shaking, 10 mL of toluene-based scintillation cocktail (Quickszint 501, Zinsser, Germany) was added. The samples were vigorously mixed and after phase separation (2 to 4 h) measured for radioactivity by liquid scintillation counting. Determination of the radioactivity contained in the toluene phase and corrected for non-specific spill-over of the radioactivity of unincorporated radiolabelled glucose contained in the water phase predominantly reflects the de novo lipid synthesis.
as §2
Figure 3 Metabolic activity of insulin glargine and its metabolites in rat adipocytes. To compare the metabolic activity of glargine and its metabolites insulin-stimulated lipid synthesis in isolated primary rat adipocytes was analyzed by incorporation of [3-^3H]glucose into toluene-extractable lipids and subsequent measurement of radioactivity by liquid scintillation counting. The adipocytes were treated with increasing concentrations of insulin, analogs, metabolites or IGF-1 for 90 min at 37°C in the presence of [3-^3H]glucose. Each point represents the mean ± SEM of five different adipocyte preparations with activity measurements done in duplicate.

The subject of the next assay is human IR-A. The assay is described as follows: IR-A autophosphorylation (In-Cell Western). The format is cell-based. To be noted: for EC50: CHO cells overexpressing IR-A, 15 min at 37°C, In-Cell Western, means ± SEM, at least three times, read-out: IR-A auto-phosphorylation EC50.
Text: as §1, §2
The binding of a constant concentration of [^125I]insulin to plasma membranes from CHO cells overexpressing either IR-A or IR-B was measured in presence of increasing concentrations of unlabeled competing ligand after incubation at room temperature for 12 h. All data has been corrected for non-specific binding and are expressed as percentage of [^125I]insulin in absence of competing ligand. To analyze the insulin-stimulated activation and subsequent autophosphorylation of the insulin receptor CHO cells overexpressing the human IR-A (C) or IR-B (D) were stimulated for 15 min at 37°C with increasing concentrations of peptides, then the cells were fixed with 3.7% PFA and the amount of phosphotyrosines was analyzed via In-Cell Western. The data represent mean values ± SEM of at least 3 individual experiments measured in quadruplicate.
Insulin receptor autophosphorylation was studied using CHO cells overexpressing either IR-A or IR-B. For detection an immunocytochemical microplate assay (In-Cell Western) based on two-colour fluorescence was applied.

Where two headings read alike, the source gives them in different places.

Regarding [Gly^A21,Arg^B31]insulin [Glargine IM], in the assay on human IGF1R, the EC50 – broadly, the concentration needed to bring the measured effect to its halfway point – stood at 179 ± 19.6 nM and the “more potent in stimulation of IGF1R autophosphorylation” value (from here on “more potent in stimulation”) came to 2 fold. In the assay with primary rat adipocytes, the EC50 worked out at 0.098 ± 0.012 nM and the “metabolic activity, EC50 lower than M1” value is given as 0.6 fold. Besides, the EC50 with human IR-A is 23.1 ± 2.7 nM.
Consider [Asp^B10]insulin, for which the EC50 in the assay on human IGF1R turned out to be 72.7 ± 7.6 nM; with primary rat adipocytes it was 0.031 ± 0.005 nM; in the assay with human IR-A it was 5.1 ± 0.7 nM. Further, the “less potent relative to IGF-1 (IGF1R autophosphorylation)” value in the assay with human IGF1R is given as around 25 times. The “more potent in stimulation” value in the assay on human IGF1R was “about 5 fold”.
In the case of “Human insulin: human insulin produced by recombinant DNA techniques or enzymatic semisynthesis”, the EC50 amounted to 447 ± 38.7 nM in the assay on human IGF1R, 0.045 ± 0.003 nM in the assay on primary rat adipocytes and 11 ± 1.3 nM in the assay with human IR-A.
Regarding “IGF-1: IGF-1 obtained from R&D Systems and Cell Sciences”, the EC50 with human IGF1R turned out to be 2.9 ± 0.4 nM; with primary rat adipocytes it was 19 ± 0.93 nM; in the assay on human IR-A it was 449 ± 61.7 nM. Also, the “lipid synthesis EC50 higher relative to human insulin” value in the assay on primary rat adipocytes is 422 fold.
On to [Gly^A21]insulin [Glargine M1], for which the EC50 is above 400 nM with human IGF1R (listed as M1), 644 ± 56.9 nM in the assay on human IGF1R, 0.139 ± 0.009 nM in the assay on primary rat adipocytes and 18.6 ± 2.5 nM in the assay with human IR-A. Besides, the “lipid synthesis EC50 higher relative to human insulin” value in the assay with primary rat adipocytes is 3.0 fold.
For “[Gly^A21,des-Thr^B30]insulin [Glargine M2]”, the EC50 with human IGF1R (listed as M2) was above 400 nM; in the assay on human IGF1R it was 485 ± 43.6 nM; in the assay on primary rat adipocytes it was 0.087 ± 0.007 nM; in the assay with human IR-A, 19.2 ± 1.6 nM. Moreover, the “metabolic activity, EC50 lower than M1” value in the assay on primary rat adipocytes is 0.6 fold.
On to “[Gly^A21,Arg^B31,Arg^B32]insulin [Glargine]”, for which, in the assay on human IGF1R, the EC50 stood at 87.5 ± 10 nM, the “less potent relative to IGF-1 (IGF1R autophosphorylation)” value is around 30 times and the “more potent in stimulation” value is “about 5 fold”. Besides, in the assay on primary rat adipocytes, the “lipid synthesis EC50 higher relative to human insulin” value is given as 1.4 fold and the EC50 came out at 0.066 ± 0.005 nM. The EC50 in the assay with human IR-A came out at 18.4 ± 2.4 nM. Besides, the “decrease in IR-A autophosphorylation activity” value in the assay with human IR-A (relative to human insulin) is 30–50%.

These data come from article PMC2832019, “In Vitro Metabolic and Mitogenic Signaling of Insulin Glargine and Its Metabolites” (PLoS ONE, 2010).
